Some test systems named below: OVCAR-5 ovarian; SR leukemia; NCI-H23 lung; CAKI-1 renal; MCF7 breast; NCI-H460 lung; UACC-62 melanoma; M14 melanoma; SNB-19 CNS; SF-539 CNS; MDA-N; NCI-H522 lung; OVCAR-3 ovarian; MOLT-4 leukemia; MALME-3M melanoma; T-47D breast; PC-3 prostate; MDA-MB-231 breast; HCC-2998 colon; HCT-116 colon.
Common to all, as to assay: NCI anticancer screen, dose series, 48 h

This note sets out measurements from PubChem BioAssay (NCI).

Molecules are shown by their SMILES.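 Each compound was tested at five concentrations against cells in 96-well plates for 48 hours. At the TGI there is no net growth.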

With `O=c1oc2nc(-c3ccccc3)cc(C(F)(F)F)c2n1Cc1ccccc1`, the TGI is greater than 100 µM in the experiment with OVCAR-5 ovarian; greater than 100 µM with SR leukemia; greater than 59.6 µM with NCI-H23 lung; greater than 100 µM in the experiment with CAKI-1 renal; greater than 100 µM in the experiment with MCF7 breast; greater than 100 µM in the experiment on NCI-H460 lung. In addition, the TGI with UACC-62 melanoma is greater than 100 µM; in the experiment on M14 melanoma it was greater than 82.9 µM; with SNB-19 CNS, greater than 100 µM; in the experiment on SF-539 CNS it was greater than 100 µM; with MDA-N, 2.68 µM; in the experiment on NCI-H522 lung, greater than 100 µM. Moreover, the TGI in the experiment with OVCAR-3 ovarian was greater than 100 µM; in the experiment with MOLT-4 leukemia it was greater than 100 µM; in the experiment with MALME-3M melanoma it was 98.5 µM; with T-47D breast it was greater than 45 µM; in the experiment with PC-3 prostate, greater than 100 µM; with MDA-MB-231 breast it was greater than 100 µM. For the same compound, the TGI in the experiment on HCC-2998 colon and with HCT-116 colon was greater than 100 µM in each case.

In the case of `Cn1cc(-c2cnc(-c3cn(C)c4ccccc34)cn2)c2ccccc21`, the TGI in the experiment on OVCAR-5 ovarian was greater than 100 µM; with SR leukemia, greater than 100 µM; with NCI-H23 lung, 37.6 µM; with CAKI-1 renal it was greater than 100 µM; in the experiment on MCF7 breast, greater than 27.1 µM; with NCI-H460 lung it was greater than 100 µM. Besides, the TGI in the experiment with UACC-62 melanoma was 31.3 µM; with M14 melanoma, 27.7 µM; in the experiment with SNB-19 CNS, greater than 100 µM; in the experiment on SF-539 CNS, 10.4 µM; with MDA-N, 3.54 µM; with NCI-H522 lung, 15.4 µM. The TGI in the experiment on OVCAR-3 ovarian is greater than 42.4 µM; in the experiment with MOLT-4 leukemia it was greater than 100 µM; in the experiment on MALME-3M melanoma, greater than 100 µM; with T-47D breast, greater than 100 µM; in the experiment on PC-3 prostate it was greater than 100 µM; with MDA-MB-231 breast, greater than 96.6 µM. The TGI in the experiment with HCC-2998 colon was 41.7 µM; in the experiment with HCT-116 colon it was greater than 100 µM.

For `CCOC(=O)[C@H](O)[C@@H](O)C(=O)NCc1ccc(C(=O)c2ccccc2)cc1`, the TGI in the experiment on OVCAR-5 ovarian, in the experiment on SR leukemia, in the experiment on NCI-H23 lung, in the experiment on CAKI-1 renal, with MCF7 breast and in the experiment with NCI-H460 lung was greater than 100 µM in each case. The TGI with UACC-62 melanoma, with M14 melanoma, with SNB-19 CNS, in the experiment on SF-539 CNS, in the experiment with MDA-N and in the experiment on NCI-H522 lung was greater than 100 µM throughout. For the same compound, the TGI with OVCAR-3 ovarian, with MOLT-4 leukemia, in the experiment on MALME-3M melanoma, in the experiment with T-47D breast, with PC-3 prostate and with MDA-MB-231 breast was greater than 100 µM throughout. The TGI with HCC-2998 colon and in the experiment with HCT-116 colon was greater than 100 µM throughout.

As to `CCCCCC(=O)Nc1nc[nH]c1C(N)=O`, the TGI in the experiment with OVCAR-5 ovarian, in the experiment on SR leukemia, with NCI-H23 lung, with CAKI-1 renal, in the experiment with MCF7 breast and in the experiment with NCI-H460 lung was greater than 100 µM in each case. For the same compound, the TGI with UACC-62 melanoma, with M14 melanoma, in the experiment on SNB-19 CNS, in the experiment with SF-539 CNS, in the experiment with MDA-N and in the experiment on NCI-H522 lung was greater than 100 µM throughout. Besides, the TGI in the experiment on OVCAR-3 ovarian, in the experiment with MOLT-4 leukemia, with MALME-3M melanoma, in the experiment on T-47D breast, with PC-3 prostate and in the experiment with MDA-MB-231 breast was greater than 100 µM each time. The TGI in the experiment with HCC-2998 colon and in the experiment on HCT-116 colon was greater than 100 µM in each case.

As to `O=C(O)[C@@H]1CCC(=O)N1C(c1ccc2c(c1)OCO2)c1ccc2c(c1)OCO2`, the TGI in the experiment on OVCAR-5 ovarian, in the experiment on SR leukemia, in the experiment on NCI-H23 lung, with CAKI-1 renal, with MCF7 breast and in the experiment with NCI-H460 lung was greater than 100 µM throughout. Also, the TGI with UACC-62 melanoma, with M14 melanoma, in the experiment with SNB-19 CNS, in the experiment with SF-539 CNS, in the experiment with MDA-N and with NCI-H522 lung was greater than 100 µM each time. The TGI in the experiment with OVCAR-3 ovarian, in the experiment with MOLT-4 leukemia, in the experiment on MALME-3M melanoma, in the experiment on T-47D breast, in the experiment on PC-3 prostate and in the experiment with MDA-MB-231 breast was greater than 100 µM each time. Moreover, the TGI in the experiment with HCC-2998 colon and in the experiment with HCT-116 colon was greater than 100 µM throughout.

Take `Fc1ccc(OCc2nc3cc(C(F)(F)F)ccc3nc2-c2ccccc2)cc1`: the TGI in the experiment with OVCAR-5 ovarian, in the experiment with SR leukemia, in the experiment on NCI-H23 lung, in the experiment on CAKI-1 renal, in the experiment on MCF7 breast and with NCI-H460 lung was greater than 100 µM each time. For the same compound, the TGI with UACC-62 melanoma, with M14 melanoma, in the experiment on SNB-19 CNS, in the experiment on SF-539 CNS, with MDA-N and in the experiment with NCI-H522 lung was greater than 100 µM in each case. Besides, the TGI was greater than 100 µM in the experiment on OVCAR-3 ovarian; greater than 67.6 µM in the experiment with MOLT-4 leukemia; greater than 100 µM in the experiment with MALME-3M melanoma; greater than 100 µM with T-47D breast; greater than 100 µM in the experiment with PC-3 prostate; greater than 100 µM in the experiment on MDA-MB-231 breast. The TGI in the experiment on HCC-2998 colon and in the experiment on HCT-116 colon was greater than 100 µM each time.

Take `Nc1c(-c2nc3ccccc3o2)sc(=S)n1-c1ccc(Cl)cc1`: the TGI in the experiment with OVCAR-5 ovarian is greater than 100 µM; in the experiment with SR leukemia, greater than 100 µM; in the experiment with NCI-H23 lung it was 37.8 µM; in the experiment with CAKI-1 renal it was 53.4 µM; with MCF7 breast, greater than 100 µM; in the experiment on NCI-H460 lung, greater than 100 µM. Further, the TGI in the experiment on UACC-62 melanoma is 27.8 µM; in the experiment on M14 melanoma it was greater than 100 µM; in the experiment with SNB-19 CNS it was 39.5 µM; with SF-539 CNS it was 23.9 µM; with MDA-N, greater than 100 µM; in the experiment on NCI-H522 lung, 49.7 µM. Also, the TGI in the experiment on OVCAR-3 ovarian was 38.1 µM; in the experiment with MOLT-4 leukemia, greater than 100 µM; in the experiment with MALME-3M melanoma, 56.5 µM; in the experiment with T-47D breast it was 33.1 µM; in the experiment with PC-3 prostate, 82.1 µM; in the experiment on MDA-MB-231 breast, 64.5 µM. Also, the results for the TGI with HCC-2998 colon and in the experiment on HCT-116 colon were greater than 100 µM and 29.3 µM, respectively.
